Measured values published in article PMC3923716 (PLoS Neglected Tropical Diseases, 2014).
Where two headings read alike, the source gives them in different places.

What was measured:
[1] = molecular target: T1, B. pahangi Hsp90 (Brugia pahangi, UniProt O61998); assay: Competition FP assay (displacement of Cy3B-GA), B. pahangi lysate; format: binding
T1 construct: Adult worms of B. pahangi were obtained from infected jirds; from tissue; host or cells: whole adult B. pahangi worms, ground and lysed in HFB buffer
Method: Adult worms of B. pahangi were obtained from infected jirds after 3–4 months, exactly as described previously and were frozen in liquid nitrogen, ground in a pestle and mortar to a fine powder and re-suspended in an appropriate volume of HFB assay buffer (20 mM HEPES, pH 7.3, 50 mM KCl, 5 mM MgCl2, 20 mM Na2MoO4, 1% NP40). Protein concentrations were estimated using the BioRad protein assay. At this point lysates were freeze-dried for shipping to the USA.
(§1) The FP assay was set up essentially as described previously, [25]. […] The equilibrium binding of Cy3B-GA and recombinant human Hsp90α (Enzo Life Sciences, Farmingdale, NY USA) or parasite lysate was determined by creating a two-fold dilution series of protein/extract for an eleven-point curve with the first column containing no protein. […] All FP values are expressed in millipolarization (mP) units with the mP value of free Cy3B-GA probe set to 50. Equilibrium binding constants were determined by nonlinear regression using a one-site binding model (GraphPad Prism software).
(§2) The relative binding affinities of inhibitors to human or parasite-derived Hsp90 was determined using competitive FP binding assays. […] For parasite-derived Hsp90, an amount of parasite lysate resulting in 50% of maximal Cy3B-GA binding was used. […] Stock solutions of each compound were prepared in DMSO at a concentration of 10 mM and 3-fold serial dilutions prepared in DMSO for eleven point curves. […] The final concentration of Cy3B-GA was 6 nM and the final DMSO concentration in all wells was 0.5%. Free Cy3B-GA (mP set to 50) and buffer only (background) wells were included as controls on each plate. Plates were incubated at 8°C with gentle shaking for 20 h.

[2] = molecular target: B. malayi Hsp90 (Brugia malayi, UniProt A0A0H5S7Y7); assay: Competition FP assay (displacement of Cy3B-GA), B. malayi lysate; format: binding
Method: as §1, §2

[3] = tested on: B. pahangi Mf (microfilariae); assay: Mf viability in vitro; format: cell-based, Brugia pahangi; conditions: for condition of Mf: 250 nM, day 7; for % death by day 7: Mf; for effect of lower concentrations on Mf: concentrations below the killing concentration
Method: As adult Brugia worms are limited in numbers, initial experiments assessed the effect of each drug on Mf viability. Mf were purified from infected animals essentially as described previously. In brief, following lavage of the peritoneal cavity of an infected animal with Hanks Balanced Salt Solution (HBSS) pre-warmed to 37°C, Mf were collected by centrifugation and then purified from host cells by centrifugation through lymphoprep (Sigma). This procedure was repeated twice. Mf were collected from the pellet, washed twice in HBSS and once in worm culture medium (WCM) which comprised RPMI 1640, (Invitrogen Cat No: 52400), containing 5% heat inactivated fetal calf serum, 1% glucose, 100 units/ml penicillin and 100 µg/ml streptomycin (all Invitrogen). Mf were then dispensed into the wells of a 24-well plate to give approximately 200 Mf in 2.0 ml, using a single well for each drug concentration. All procedures were carried out using aseptic techniques. The five novel compounds, plus GA and medium alone controls, were tested three times against Mf over the full range of concentrations.

[4] = tested on: adult female B. pahangi; assay: Adult female worm assay in vitro (Mf output and adult viability), continuous exposure; format: cell-based, Brugia pahangi; conditions: initial screen 2.0 µM to 100 nM, adult female worms
Method: For adult worm assays, adult female B. pahangi, 3–4 months old, were incubated individually in 2.0 ml of WCM overnight in 24-well plates and pre-screened for Mf production. […] For the drug experiments, six female worms of B. pahangi for each concentration of drug were cultured individually in 24-well plates in 2.0 ml of WCM containing drug, or carrier alone (DMSO) at a concentration equal to that in the highest concentration of drug. In some experiments, GA was used as a positive control. Initially, all five compounds were tested over selected concentrations starting at 2 µM to 100 nM (see Results for details). For Hsp90 inhibitors, Mf output by individual female worms is a sensitive indicator of adult worm viability and, in most experiments, was assessed at 72 h. In addition, adult worms were examined microscopically on a daily basis for 7–10 days to determine whether lower concentrations of drugs had any effects over a longer period of incubation. Results are expressed as mean Mf output ± SD over a 72 h period. Statistical significance between groups was calculated using the Mann Whitney test with P values<0.05 being considered significant.

[5] = molecular target: T2, recombinant human Hsp90α (Homo sapiens, UniProt P07900); assay: Competition FP assay (displacement of Cy3B-GA), human Hsp90α; format: binding
T2 construct: purchased Enzo Life Sciences
Method: as §1
as §2, with “Free Cy3B-GA (mP set to 50) and buffer only (background) wells were included as controls on each plate.” left out

[6] = tested on: Brugia Hsp90; assay: Competition FP assay, Brugia Hsp90 (species not separated); format: binding
Method: as §1, §2

[7] = tested on: adult B. malayi worms; conditions: 48 h of drug exposure
Excerpt: (§3) Plates were maintained for up to 10 days and the condition of adult parasites noted at regular intervals. In one experiment the effect of GA on Mf output by adult B. malayi worms was compared with B. pahangi. B. malayi worms were kindly provided by Prof. R. Maizels (University of Edinburgh). […] In all in vitro experiments, plates were viewed daily and the motility and condition of the parasites noted by two independent observers, of whom one was unaware of the contents of the well.

[8] = tested on: adult B. pahangi worms; conditions: 48 h of drug exposure
Excerpt: as §3

[9] = read-out: B. malayi IC50, best fit (95% confidence intervals)
[10] = FP assay, best fit (95% confidence intervals), read-out: B. pahangi IC50
[11] = best fit (95% confidence intervals), read-out: B. malayi IC50

| IC50 [1, 10] | IC50 [2, 11] | Compound | IC50 [2, 9] | concentration with significant effect on Mf output [4] | also measured |
| --- | --- | --- | --- | --- | --- |
|  |  | CC1(C)CC(=O)c2c(C(F)(F)F)nn(-c3ccc(C(N)=O)c(N[C@H]4CC[C@H](O)CC4)c3)c2C1 [SNX-2112] | 20 nM | 500 nM | IC50 [1]: 15 nM; condition of Mf [3]: very sluggish but still alive |
| 8 nM | 2.5 nM | C=CCNC1=C2C[C@@H](C)C[C@H](OC)[C@H](O)[C@@H](C)/C=C(\C)[C@H](OC(N)=O)[C@@H](OC)/C=C\C=C(/C)C(=O)NC(=CC1=O)C2=O [17-AAG] |  |  |  |
| 10 nM | 11 nM | CC1(C)CC(=O)c2c(C(F)(F)F)nn(-c3ccc(C(N)=O)c(N[C@H]4CCC[C@@H]4O)c3)c2C1 [SNX-9203] |  | ≤ 100 nM | IC50 ([5]; FP assay, best fit (95% confidence intervals), read-out: HsHsp90α IC50): 3.8 nM; condition of Mf [3]: most worms were alive but were much less motile than controls; % death by day 7 ([3]; 500 nM): 90% |
|  |  | CCNC(=O)c1cc2c(-c3cc(OCCN4CCCC4)c(Cl)cc3Cl)nc(N)nc2s1 [NVP-BEP800] | 8.7 nM | ≤ 100 nM | IC50 [5]: 13 nM; IC50 [1]: 6.9 nM; IC50 ([6]; read-out: IC50 for binding to Brugia Hsp90): ~7 nM; EC50 ([3]; Brugia pahangi, 168 h, read-out: EC50 against Mf viability): ~250 nM; % death by day 7 ([3]; 500 nM): majority of Mf; effect of lower concentrations on Mf ([3]; 7 days): affected Mf motility but did not kill substantial numbers of worms |
| 240 nM | 330 nM | CCc1cc(-c2n[nH]c(C)c2-c2ccc3c(c2)OCCO3)c(O)cc1O [CCT018159] |  |  |  |
|  |  | COC1=C2C[C@@H](C)C[C@H](OC)[C@H](O)[C@@H](C)/C=C(\C)[C@H](OC(N)=O)[C@@H](OC)/C=C\C=C(/C)C(=O)NC(=CC1=O)C2=O [Geldanamycin] | 12 nM |  | % death by day 7 ([3]; 31.25 nM, listed as GA): 90%; reduction in Mf output ([7]; 1.0 µM): 74%; reduction in Mf output ([7]; 2.0 µM): 93%; reduction in Mf output ([8]; 1.0 µM): 78%; reduction in Mf output ([8]; 2.0 µM): 92% |
| 0.54 nM | 1.2 nM | CCNC(=O)c1noc(-c2cc(Cl)c(O)cc2O)c1-c1ccc(OC)cc1 [VER-50589] |  |  |  |
|  |  | COc1c(C)cnc(Cn2cnc3c(Cl)nc(N)nc32)c1C [BIIB021] | 14 nM | 2000 nM | IC50 [1]: 16 nM; concentration active on Mf ([3]; 7 days, tested 4.0 µM to 0.976 nM): 4.0 µM; % death by day 7 ([3]; 4.0 µM): 100%; effect of lower concentrations on Mf ([3]; 7 days): affected worm motility but did not kill the worms |
| 11 nM | 14 nM | CCNC(=O)c1[nH]nc(-c2cc(Cl)c(O)cc2O)c1-c1ccc(OC)cc1 [VER-49009] |  |  |  |
| 17 nM | 27 nM | CC(C)NCCCn1c(Sc2cc3c(cc2I)OCO3)nc2c(N)ncnc21 [PU-H71] |  |  |  |

| Compound | IC50 [1, 10] | IC50 [2, 11] | IC50 [2, 9] | concentration with significant effect on Mf output [4] | also measured |
| --- | --- | --- | --- | --- | --- |
| Oc1cc(O)c(-c2noc3ccc(NCCN4CCOCC4)cc23)cc1Cl [CAY10607] | 1.6 nM | 16 nM |  |  | higher affinity for B. pahangi Hsp90 compared to B. malayi Hsp90 [6]: 10 fold |
